In data set [1] the target is T1, Adenosine receptor A2a (Homo sapiens, UniProt P29274). The experiment in a line: Inhibition of adenosine A2A receptor (unknown origin) at 100 umol/L relative to control.
The target in data set [2] is T1, Adenosine receptor A2a. The experiment in a line: Displacement of [3H]-ZM241385 from human adenosine A2A receptor expressed in HEK293 cells. It counts as cell-based.
A short description of data set [3]: Chemical stability in 0.2N HCl in methanol after 24 hrs. The format is physicochemical.

The structures appear in SMILES notation.

T1 sequence (P29274 whole entry): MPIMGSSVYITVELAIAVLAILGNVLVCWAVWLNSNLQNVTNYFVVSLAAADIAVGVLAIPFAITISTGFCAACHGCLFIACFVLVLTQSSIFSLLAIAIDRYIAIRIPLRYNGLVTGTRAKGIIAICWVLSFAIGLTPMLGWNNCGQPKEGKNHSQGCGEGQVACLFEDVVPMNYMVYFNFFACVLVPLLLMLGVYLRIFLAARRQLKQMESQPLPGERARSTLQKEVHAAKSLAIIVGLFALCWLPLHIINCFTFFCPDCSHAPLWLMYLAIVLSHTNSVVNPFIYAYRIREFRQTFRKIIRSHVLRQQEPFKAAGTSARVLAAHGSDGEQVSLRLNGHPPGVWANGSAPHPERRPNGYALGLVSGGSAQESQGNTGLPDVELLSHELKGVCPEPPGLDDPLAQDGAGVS

In the case of `COCCOc1ccc(N2CCN(CCn3ncc4c3nc(N)n3nc(-c5ccco5)nc43)CC2)cc1` [PRELADENANT], the inhibition in data set [1] came out at 120%. This compound also showed an inhibition constant (Ki) in data set [2] of 1 nM. Take `Cc1cc(C)n(-c2nc(Nc3ccccn3)cc(N3CCc4ccccc4C3)n2)n1`: in data set [1], the inhibition was found to be 95%. The same compound gave an inhibitory constant (Ki) in data set [2] of 65 nM.

As for `Cc1cc(C)n(-c2nc(Nc3ncccn3)cc(-n3cccn3)n2)n1`, the inhibition in data set [1] was 23%. Still for that read-out and setting: with `Cc1cc(C)n(-c2nc(Nc3ncccn3)cc(N3CCc4ccccc4C3)n2)n1` the figure was -5%.

In the case of `COC[C@H]1CCCN1c1cc(NC(C)=O)nc(-n2nc(C)cc2C)n1`, the inhibition in data set [1] worked out at 123%. Also, the affinity in data set [2], expressed as Ki, was 15 nM. `Cc1cc(C)n(-c2nc(NCC(F)(F)F)cc(-n3cccn3)n2)n1`: the inhibition in data set [1] was determined as 117%. The compound further had a Ki in data set [2] of 52 nM. For the compound `Cc1cc(C)n(-c2nc(NCC(F)(F)F)cc(N3CCc4ccccc4C3)n2)n1`, the inhibition in data set [1] was 64%.

On to `COC[C@H]1CCCN1c1cc(NCC(F)(F)F)nc(-n2nc(C)cc2C)n1`, for which, in data set [3], the Stability result is “Stable”. Besides, the inhibition in data set [1] was determined as 115%. The Ki in data set [2] worked out at 24 nM.

Take `Cc1cc(C)n(-c2nc(Nc3nccs3)cc(-n3cccn3)n2)n1`: the inhibition in data set [1] worked out at 58%. Turning to `COC[C@H]1CCCN1c1cc(Nc2nccs2)nc(-n2nc(C)cc2C)n1`, the Stability result in data set [3] is given as “Stable”. In addition, the inhibition in data set [1] was determined as 123%. In data set [2], this compound registered a Ki of 9.5 nM.

Consider `COC[C@H]1CCCN1c1cc(Nc2cnccn2)nc(-n2nc(C)cc2C)n1`, for which, in data set [3], the Stability result is “Stable”. Moreover, the inhibition in data set [1] is 124%. The affinity in data set [2], expressed as Ki, was 69 nM. On to `Cc1cc(C)n(-c2nc(Nc3nccs3)cc(N3CCc4ccccc4C3)n2)n1`, for which the inhibition in data set [1] worked out at 117%. Further, the inhibition constant (Ki) in data set [2] stood at 66 nM. Regarding `COC[C@H]1CCCN1c1cc(Nc2ccccn2)nc(-n2nc(C)cc2C)n1`, the Stability result in data set [3] was “Stable”. Also, the inhibition in data set [1] was determined as 124%. Besides, the inhibition constant Ki in data set [2] was determined as 45 nM. As to `COC[C@H]1CCCN1c1cc(Nc2ncccn2)nc(-n2nc(C)cc2C)n1`, the inhibition in data set [1] was found to be 71%. Turning to `Cc1cc(C)n(-c2nc(Nc3ccccn3)cc(-n3cccn3)n2)n1`, the inhibition in data set [1] was 117%. In data set [2], the Ki is 9.2 nM.

`Cc1cc(C)n(-c2nc(Nc3cnccn3)cc(-n3cccn3)n2)n1`: in data set [1], the inhibition amounted to 117%. The compound also showed an inhibitory constant (Ki) in data set [2] of 43 nM.

Consider `Cc1cc(C)n(-c2nc(Nc3cnccn3)cc(N3CCc4ccccc4C3)n2)n1`, for which the inhibition in data set [1] amounted to 121%. In data set [2], this compound showed a Ki of 1.1 nM.

The record behind these values is ChEMBL document CHEMBL3098080, “Replacement of amide with bioisosteres led to a new series of potent adenosine A2A receptor antagonists” (Bioorg Med Chem Lett, 2014).
